Results taken from patent US20260297060A1, “COMPOUNDS FOR THE DEGRADATION OF MUTANT BRAF” (C4 THERAPEUTICS, INC., priority 2023, published 2026).
Like-named read-outs stand apart in the source and are kept apart here.

Tests used:
BRAF V600E = target: T1, BRAF V600E (Homo sapiens, UniProt P15056+Q96SW2, V600E); assay: BRAF V600E HiBiT Degradation Assay; format: cell-based
T1 construct: knock-in of the HiBiT tag to the endogenous BRAF V600E locus; host or cells: A375.10 (A375 clonal line, CRISPR HiBiT knock-in at the endogenous BRAF V600E locus)
Procedure, shortened: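 Endogenous HiBiT knock-in on BRAF V600E in A375 cells (clone A375.10); 11-point half-log series, top 10 μM, 2, 6 or 24 h at 37° C. Lytic HiBiT luminescence, background-subtracted, normalized to DMSO; 4-parameter fit gives DC50, Emax (residual protein) and IP (inflection point).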

A375-NRAS^Q61K cells = assay: CTGlo Cell Viability Assay, A375-NRAS^Q61K (A375.11) cells, 96 hours; format: cell-based, human; conditions: A375.11 (A375-NRAS^Q61K) cells; for Emax / CTGlo A375.11 96 hours Emax: lowest % viability achieved
Procedure, shortened: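 A375 cells carrying BRAF V600E and NRAS Q61K were seeded at 250 cells/well with a 10-point half-log dose series (max 10 μM final). After 96 h at 37 °C, viability was read as ATP luminescence (CellTiter-Glo), background-subtracted and normalized to DMSO (100%). GI50 from 4-parameter fit; Emax is the lowest % viability.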

[1] = A375.10 cells, BRAF V600E, 2 hours, inflection point, read-out: HiBiT-Degradation A375.10 BRAF 2 hours IP
[2] = A375.10 cells, BRAF V600E, 2 hours, read-out: HiBiT-Degradation A375.10 BRAF 2 hours DC50
[3] = A375.10 cells, BRAF V600E, 2 hours, residual protein remaining, read-out: HiBiT-Degradation A375.10 BRAF 2 hours Emax
[4] = A375.10 cells, BRAF V600E, 2 hours, residual protein remaining

T1 sequence (P15056 whole entry V600E): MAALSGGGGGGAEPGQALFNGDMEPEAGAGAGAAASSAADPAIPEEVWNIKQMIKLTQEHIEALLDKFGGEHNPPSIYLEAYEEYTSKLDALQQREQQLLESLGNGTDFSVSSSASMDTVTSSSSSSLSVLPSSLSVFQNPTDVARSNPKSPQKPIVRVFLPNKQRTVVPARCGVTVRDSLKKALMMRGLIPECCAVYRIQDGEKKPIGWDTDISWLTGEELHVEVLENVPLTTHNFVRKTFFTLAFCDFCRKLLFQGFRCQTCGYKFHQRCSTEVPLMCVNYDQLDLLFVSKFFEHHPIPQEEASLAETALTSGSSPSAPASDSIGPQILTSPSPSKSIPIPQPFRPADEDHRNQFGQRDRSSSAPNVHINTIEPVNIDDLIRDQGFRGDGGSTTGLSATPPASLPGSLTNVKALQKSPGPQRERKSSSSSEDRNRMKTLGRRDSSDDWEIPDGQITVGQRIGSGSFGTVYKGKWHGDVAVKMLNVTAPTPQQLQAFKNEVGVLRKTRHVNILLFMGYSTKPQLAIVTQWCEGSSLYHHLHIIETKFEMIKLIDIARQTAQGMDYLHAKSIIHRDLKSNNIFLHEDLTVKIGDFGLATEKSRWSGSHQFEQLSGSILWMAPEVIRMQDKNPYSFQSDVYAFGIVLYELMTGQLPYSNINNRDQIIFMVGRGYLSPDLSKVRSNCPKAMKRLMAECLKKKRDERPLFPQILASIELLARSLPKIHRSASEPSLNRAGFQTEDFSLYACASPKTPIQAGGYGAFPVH
T1 sequence (Q96SW2 whole entry): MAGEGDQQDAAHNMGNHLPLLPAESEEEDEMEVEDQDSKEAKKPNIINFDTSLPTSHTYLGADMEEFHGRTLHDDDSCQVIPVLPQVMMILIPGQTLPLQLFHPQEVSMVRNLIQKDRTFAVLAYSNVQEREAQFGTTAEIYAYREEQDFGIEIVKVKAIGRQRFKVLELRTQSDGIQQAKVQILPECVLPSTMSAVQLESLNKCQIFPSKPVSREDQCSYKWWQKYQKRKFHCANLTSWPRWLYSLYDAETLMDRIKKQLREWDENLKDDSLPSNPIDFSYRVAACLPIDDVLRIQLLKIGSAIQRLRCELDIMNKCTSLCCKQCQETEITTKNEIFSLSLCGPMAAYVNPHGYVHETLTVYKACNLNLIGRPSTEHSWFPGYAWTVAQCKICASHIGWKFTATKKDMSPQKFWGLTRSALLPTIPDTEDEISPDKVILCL
T1 sequence (Q16531 whole entry partner): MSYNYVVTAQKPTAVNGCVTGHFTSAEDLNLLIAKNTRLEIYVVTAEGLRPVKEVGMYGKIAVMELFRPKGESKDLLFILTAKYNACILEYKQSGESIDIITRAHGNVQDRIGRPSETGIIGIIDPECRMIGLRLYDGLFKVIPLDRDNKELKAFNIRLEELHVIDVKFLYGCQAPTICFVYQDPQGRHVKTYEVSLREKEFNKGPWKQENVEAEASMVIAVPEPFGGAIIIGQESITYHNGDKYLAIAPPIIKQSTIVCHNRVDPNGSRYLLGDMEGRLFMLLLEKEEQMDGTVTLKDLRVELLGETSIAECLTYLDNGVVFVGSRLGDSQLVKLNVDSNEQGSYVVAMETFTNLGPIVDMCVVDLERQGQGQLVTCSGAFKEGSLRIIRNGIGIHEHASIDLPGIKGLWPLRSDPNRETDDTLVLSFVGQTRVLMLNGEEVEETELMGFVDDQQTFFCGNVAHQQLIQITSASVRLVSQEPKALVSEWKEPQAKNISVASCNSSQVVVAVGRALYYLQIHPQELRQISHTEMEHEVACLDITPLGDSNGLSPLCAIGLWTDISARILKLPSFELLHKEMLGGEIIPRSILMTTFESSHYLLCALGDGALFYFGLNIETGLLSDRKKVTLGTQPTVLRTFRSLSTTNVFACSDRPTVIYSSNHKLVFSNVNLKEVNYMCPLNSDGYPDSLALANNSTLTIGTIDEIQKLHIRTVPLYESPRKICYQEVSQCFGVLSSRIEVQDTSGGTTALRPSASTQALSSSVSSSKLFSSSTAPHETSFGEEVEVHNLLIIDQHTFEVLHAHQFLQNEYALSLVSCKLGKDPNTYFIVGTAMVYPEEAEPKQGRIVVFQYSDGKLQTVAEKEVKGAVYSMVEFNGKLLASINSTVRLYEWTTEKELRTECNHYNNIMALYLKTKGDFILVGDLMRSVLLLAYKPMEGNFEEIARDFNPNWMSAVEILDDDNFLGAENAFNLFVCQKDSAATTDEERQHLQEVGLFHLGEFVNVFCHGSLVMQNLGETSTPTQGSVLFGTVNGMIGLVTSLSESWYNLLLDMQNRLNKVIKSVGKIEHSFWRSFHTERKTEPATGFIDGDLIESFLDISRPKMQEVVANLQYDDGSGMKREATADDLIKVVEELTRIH

| SMILES | DC50 (BRAF V600E; [1]) [nM] | DC50 (BRAF V600E; [2]) [nM] | Emax (BRAF V600E; [3]) [%] | DC50 (BRAF V600E; A375.10 cells, HiBiT, BRAF V600E, 24 hours, read-out: HiBiT-Degradation A375.10 BRAF 24 hours DC50) [nM] | Emax (BRAF V600E; A375.10 cells, HiBiT, BRAF V600E, 24 hours, read-out: HiBiT-Degradation A375.10 BRAF 24 hours Emax) [%] | DC50 (BRAF V600E; A375.10 cells, HiBiT, BRAF V600E, 24 hours, read-out: HiBiT-Degradation A375.10 BRAF 24 hours IP) [nM] | GI50 (A375-NRAS^Q61K cells; Homo sapiens, 96 h) [nM] | Emax (A375-NRAS^Q61K cells; Homo sapiens, 96 h) [%] | HiBiT-Degradation A375.10 BRAF 2 hours Emax (BRAF V600E; [4]) | GI50 (A375-NRAS^Q61K cells) [nM] | CTGlo A375.11 96 hours Emax (A375-NRAS^Q61K cells) | Emax (BRAF V600E; read-out: HiBiT-Degradation A375.10 BRAF 2 hours Emax, A375.10 cells, BRAF V600E, 2 hours, residual protein remaining) [%] | DC50 (BRAF V600E; read-out: HiBiT-Degradation A375.10 BRAF 2 hours DC50, A375.10 cells, BRAF V600E, 2 hours) [nM] | DC50 (BRAF V600E; read-out: HiBiT-Degradation A375.10 BRAF 2 hours IP, A375.10 cells, BRAF V600E, 2 hours, inflection point) [nM] |
| --- | --- | --- | --- | --- | --- | --- | --- | --- | --- | --- | --- | --- | --- | --- |
| CCN(C)S(=O)(=O)Nc1ccc(F)c(Oc2ccc3ncn([C@H]4COC5(CCN(CC6(O)CCN(c7cc8c(cc7F)c(N7CCC(=O)NC7=O)nn8C)CC6)CC5)C4)c(=O)c3c2)c1C#N [Compound 230, (3R)-3-[6-[2-cyano-3-[[ethyl(methyl)sulfamoyl]amino]-6-fluoro-phenoxy]-4-oxo-quinazolin-3-yl]-8-[[1-[3-(2,4-dioxohexahydropyrimidin-1-yl)-5-fluoro-1-methyl-indazol-6-yl]-4-hydroxy-4-piperidyl]methyl]-1-oxa-8-azaspiro[4.5]decane] | < 1000 | < 1000 | < 50 | < 1000 | < 50 | < 1000 | < 1000 | 50 to 90 | – | – | – | – | – | – |
| CCN(C)S(=O)(=O)Nc1ccc(F)c(Oc2ccc3ncn(C4CC5(CCN(CC6CCN(c7cc8c(cc7F)c(N7CCC(=O)NC7=O)nn8C)CC6)CC5)C4)c(=O)c3c2)c1C#N [Compound 255, 6-[2-cyano-3-[[ethyl(methyl)sulfamoyl]amino]-6-fluoro-phenoxy]-3-[7-[[1-[3-(2,4-dioxohexahydropyrimidin-1-yl)-5-fluoro-1-methyl-indazol-6-yl]-4-piperidyl]methyl]-7-azaspiro[3.5]nonan-2-yl]-4-oxo-quinazoline] | < 1000 | < 1000 | 50 to 90 | – | – | – | > 10000 | 50 to 90 | – | – | – | – | – | – |
| CCN(C)S(=O)(=O)Nc1ccc(F)c(Oc2ccc3ncn(C4CC5(CCN(C6CC7(C6)CN(c6cc8c(cc6F)c(N6CCC(=O)NC6=O)nn8C)C7)C5)C4)c(=O)c3c2)c1C#N (single isomer, unassigned) [Compound 301, 6-[2-cyano-3-[[ethyl(methyl)sulfamoyl]amino]-6-fluoro-phenoxy]-3-[6-[2-[3-(2,4-dioxohexahydropyrimidin-1-yl)-5-fluoro-1-methyl-indazol-6-yl]-2-azaspiro[3.3]heptan-6-yl]-6-azaspiro[3.4]octan-2-yl]-4-oxo-quinazoline] | < 1000 | < 1000 | 50 to 90 | – | – | – | < 1000 | 50 to 90 | – | – | – | – | – | – |
| CCN(C)S(=O)(=O)Nc1ccc(F)c(Oc2ccc3ncn([C@H]4COC5(C4)CN(C4CCC(c6cc7c(cc6F)c(N6CCC(=O)NC6=O)nn7C)CC4)C5)c(=O)c3c2)c1C#N (single isomer, unassigned) [Compound 236] | < 1000 | < 1000 | – | – | – | – | – | – | *** (<=50%) | 1000 to 10000 | ** (<90% and >50%) | – | – | – |
| N#Cc1c(NS(=O)(=O)N2CC[C@@H](F)C2)ccc(F)c1Oc1ccc2ncn(C3COC4(CCN(C5CCC(c6ccc(NC7CCC(=O)NC7=O)cc6F)CC5)CC4)C3)c(=O)c2c1 (single isomer, unassigned) [Compound 143] | < 1000 | < 1000 | < 50 | – | – | – | < 1000 | < 50 | – | – | – | – | – | – |
| CCN(C)S(=O)(=O)Nc1ccc(F)c(Nc2ccc3ncn([C@H]4COC5(CCN(C6CCC(c7cc8c(cc7F)c(N7CCC(=O)NC7=O)nn8C)CC6)CC5)C4)c(=O)c3c2)c1C#N (single isomer, unassigned) [Compound 65] | < 1000 | 1000 to 10000 | – | – | – | – | – | – | ** (<90% and >50%) | > 10000 | ** (<90% and >50%) | – | – | – |
| CCN(C)S(=O)(=O)Nc1ccc(F)c(C(=O)c2ccc3ncn([C@H]4COC5(CCN(C6CCC(c7cc8c(cc7F)c(N7CCC(=O)NC7=O)nn8C)CC6)CC5)C4)c(=O)c3c2)c1F (stereo partly drawn) [Compound 208, (3R)-8-[4-[3-(2,4-dioxohexahydropyrimidin-1-yl)-5-fluoro-1-methyl-indazol-6-yl]cyclohexyl]-3-[6-[3-[[ethyl(methyl)sulfamoyl]amino]-2,6-difluoro-benzoyl]-4-oxo-quinazolin-3-yl]-1-oxa-8-azaspiro[4.5]decane] | < 1000 | < 1000 | – | – | – | – | < 1000 | 50 to 90 | – | – | – | < 50 | – | – |
| CCN(C)S(=O)(=O)Nc1ccc(F)c(Oc2ccc3ncn([C@H]4CO[C@]5(CCN(C6CCC(c7cc8c(cc7F)c(N7CCC(=O)NC7=O)nn8C)CC6)C5)C4)c(=O)c3c2)c1C#N (single isomer, unassigned) [Compound 288] | < 1000 | 1000 to 10000 | 50 to 90 | – | – | – | – | 50 to 90 | – | > 10000 | – | – | – | – |
| Cn1nc(N2CCC(=O)NC2=O)c2cc(F)c(C3CCC(N4CCC5(CC4)CC(c4cnc6ccc(Oc7c(F)ccc(NS(=O)(=O)C8CCCC8)c7C#N)cc6n4)C5)CC3)cc21 (single isomer, unassigned) [Compound 271, N-[2-cyano-3-[3-[7-[4-[3-(2,4-dioxohexahydropyrimidin-1-yl)-5-fluoro-1-methyl-indazol-6-yl]cyclohexyl]-7-azaspiro[3.5]nonan-2-yl]quinoxalin-6-yl]oxy-4-fluoro-phenyl]cyclopentanesulfonamide] | – | – | – | – | – | – | – | – | *** (<=50%) | < 1000 | *** (<=50%) | – | < 1000 | < 1000 |
| CN(CCO)S(=O)(=O)Nc1ccc(F)c(Oc2ccc3ncn([C@H]4COC5(CCN(C6CC7(C6)CN(c6cc8c(cc6F)c(N6CCC(=O)NC6=O)nn8C)C7)CC5)C4)c(=O)c3c2)c1C#N [Compound 130, (3R)-3-[6-[2-cyano-6-fluoro-3-[[2-hydroxyethyl(methyl)sulfamoyl]amino]phenoxy]-4-oxo-quinazolin-3-yl]-8-[2-[3-(2,4-dioxohexahydropyrimidin-1-yl)-5-fluoro-1-methyl-indazol-6-yl]-2-azaspiro[3.3]heptan-6-yl]-1-oxa-8-azaspiro[4.5]decane] | < 1000 | < 1000 | 50 to 90 | – | – | – | > 10000 | 50 to 90 | – | – | – | – | – | – |
| CCN(C)S(=O)(=O)Nc1ccc(F)c(Oc2ccc3ncn(CC4(F)CCN(C5CCC(c6cc7c(cc6F)c(N6CCC(=O)NC6=O)nn7C)CC5)CC4)c(=O)c3c2)c1C#N (single isomer, unassigned) [Compound 201, 6-[2-cyano-3-[[ethyl(methyl)sulfamoyl]amino]-6-fluoro-phenoxy]-3-[[1-[4-[3-(2,4-dioxohexahydropyrimidin-1-yl)-5-fluoro-1-methyl-indazol-6-yl]cyclohexyl]-4-fluoro-4-piperidyl]methyl]-4-oxo-quinazoline] | < 1000 | < 1000 | < 50 | – | – | – | 1000 to 10000 | 50 to 90 | – | – | – | – | – | – |
| CCN(C)S(=O)(=O)Nc1ccc(F)c(C(=O)c2ccc3ncn(C4CC5(CCN(C6CCC(c7ccc(NC8CCC(=O)NC8=O)cc7F)CC6)CC5)C4)c(=O)c3c2)c1F (single isomer, unassigned) [Compound 199, 3-[7-[4-[4-[(2,6-dioxo-3-piperidyl)amino]-2-fluoro-phenyl]cyclohexyl]-7-azaspiro[3.5]nonan-2-yl]-6-[3-[[ethyl(methyl)sulfamoyl]amino]-2,6-difluoro-benzoyl]-4-oxo-quinazoline] | < 1000 | < 1000 | < 50 | – | – | – | 1000 to 10000 | 50 to 90 | – | – | – | – | – | – |
